# According to paper PMC6050476, “Pre-clinical Pharmacokinetic and Metabolomic Analyses of Isorhapontigenin, a Dietary Resveratrol Derivative” (Frontiers in Pharmacology, 2018):
# Columns and labels:
# [1] = Stability of isorhapontigenin in rat plasma QC samples under different storage conditions; format: in vitro ADME, Sprague-Dawley rat; conditions: for Freeze thaw stability (% remaining): 3 cycles; for Post preparative stability (% remaining): 4 °C, 6 h; for Long term stability (% remaining): -80 °C, 14 days; for Short term stability (% remaining): on ice, 3 h
# Method: Stock solutions of ISO were prepared by dissolution in DMSO and they were stored at room temperature. The stock solutions were further diluted using blank rat plasma to prepare the calibration standards and QC samples. The stock solution of IS was dissolved in acetonitrile to a concentration of 10 μg/mL. 100 μL IS solution was aliquoted into 1.5-mL polypropylene tubes for storage at −80°C. During sample preparation, this solution was further diluted to the working concentration of 10 ng/mL using acetonitrile containing 0.18 μM of disodium EDTA and stored at 4°C.
# The calibration range was 1–1000 ng/mL. A simple protein precipitation procedure was used for sample cleanup prior to LC–MS/MS analysis ([Chen et al., 2015], [2016b]). Three volumes of 10 ng/mL IS working solution (^13C isotopically labeled resveratrol in acetonitrile–0.18 μM disodium EDTA) were added to one volume of plasma sample spiked with of L-ascorbic acid at a final concentration of 0.8 mg/mL. After vigorous vortex, centrifugation of samples was performed at 15,000 g for 10 min at 4°C. Subsequently, the clear supernatants were transferred into HPLC vials. During each LC–MS/MS analysis, 1 μL of supernatant was injected into the system.
# The dilution integrity was confirmed using a dilution factor of 20. In the presence of L-ascorbic acid (0.8 mg/mL), ISO appeared to stable in plasma; similarly, addition of EDTA in IS acetonitrile solution (0.18 μM) enhanced the post-preparative stability. The details in accuracy, precision, stability, and matrix effect can be found in Supplementary Tables S1–S3.
# [2] = Body weight before and after 1-week ISO intervention; format: in vivo, Sprague-Dawley rats; conditions: 1-week daily oral ISO 100 μmol/kg, normal diet; p = 0.74 and 0.89
# Method: Twenty-two rats were divided into four groups. Group 1 (n = 5) received a single bolus intravenous injection of ISO at the dose of 90 μmol/kg (23.2 mg/kg). Serial blood samples were collected before dosing and at 5, 15, 30, 60, 90, 120, 180, 240, 300, 420, 540, and 720 min after intravenous injection. Group 2 (n = 5) received a single oral administration of ISO at the dose of 200 μmol/kg (51.6 mg/kg). Serial blood samples were collected before dosing and at 15, 30, 45, 60, 90, 120, 180, 240, 300, 420, 540, and 720 min after oral gavage. Group 3 (n = 5) received daily oral pre-treatment of oral dosing vehicle (2 mL/kg) while Group 4 (n = 7) received daily oral pre-treatment of ISO at the dose of 100 μmol/kg (25.8 mg/kg) for 1 week. On day 7, ∼8–10 h after the last pre-treatment dose, surgery was performed on rats in Groups 3 and 4 for jugular vein cannulation, and blood samples were also collected from Groups 3 and 4 for metabolomic study. On day 8, the pharmacokinetic study was carried out on these two groups of animals at the dose of 100 μmol/kg (25.8 mg/kg) using the same blood sampling schedule as Group 2.
# One-week daily oral dosing of ISO decreased plasma levels of some di-aminoacid and N-acetyl amino acids such as glycyl-glycine, N-acetyl-glycine, N-acetyl-glutamine, and N-acetyl-orthinine. […] In this study, the healthy Sprague-Dawley rats were fed with normal diet. […]
smiles,measurement,setting,value
"COc1cc(/C=C/c2cc(O)cc(O)c2)ccc1O [isorhapontigenin, trans-3,5,4′-trihydroxy-3′-methoxystilbene]",Freeze thaw stability (% remaining),[1]; QC 2 ng/ml in rat plasma,98.4 ± 7.6 % remaining
same,Freeze thaw stability (% remaining),[1]; QC 400 ng/ml in rat plasma,94.0 ± 2.4 % remaining
same,Freeze thaw stability (% remaining),[1]; QC 800 ng/ml in rat plasma,92.3 ± 1.2 % remaining
same,Post preparative stability (% remaining),[1]; QC 2 ng/ml,108.0 ± 6.1 % remaining
same,Post preparative stability (% remaining),[1]; QC 400 ng/ml,108.0 ± 1.0 % remaining
same,Post preparative stability (% remaining),[1]; QC 800 ng/ml,108.0 ± 4.1 % remaining
same,Long term stability (% remaining),[1]; QC 2 ng/ml in rat plasma,87.9 ± 2.5 % remaining
same,Long term stability (% remaining),[1]; QC 400 ng/ml in rat plasma,101.0 ± 3.0 % remaining
same,Long term stability (% remaining),[1]; QC 800 ng/ml in rat plasma,97.0 ± 6.5 % remaining
same,Short term stability (% remaining),[1]; QC 2 ng/ml in rat plasma,104.0 ± 6.0 % remaining
same,Short term stability (% remaining),[1]; QC 400 ng/ml in rat plasma,102.0 ± 5.4 % remaining
same,Short term stability (% remaining),[1]; QC 800 ng/ml in rat plasma,98.7 ± 6.4 % remaining
same,"body weights, vehicle vs ISO treatment group, before and after ISO intervention",[2],remained similar
